According to patent publication US5023262A, “Hydrogenated rapamycin derivatives” (American Home Products Corporation, priority 1990, dated 1991):
Converted amounts (≈) assume the structure as drawn.

Assays:
[1] = tested on: Candida albicans ATCC 10231; test: Antifungal plate test, inhibition of Candida albicans ATCC 10231; assay type: cell-based; details: for MIC: Candida albicans, ATCC10231, read-out: MIC to inhibit growth
Method: (§1) The following represents the typical procedure used. Compound to be tested was placed on sterile dried 1/4" plate disks, and allowed to dry. Agar plates were seeded with fungi and allowed to solidify. The impregnated disks were placed on the seeded Agar surface and incubated for the time required for the particular culture. Results are expressed in MIC (μg/ml) to inhibit growth.

[2] = tested on: Candida albicans ATCC 38248; test: Antifungal plate test, inhibition of Candida albicans ATCC 38248; assay type: cell-based; details: for MIC: Candida albicans, ATCC38248, read-out: MIC to inhibit growth
Method: as §1

[3] = tested on: cells from the thymus of normal BALB/c mice; test: Comitogen-induced thymocyte proliferation procedure (LAF); assay type: cell-based; details: in vitro, rapamycin 1.0, 72 hours culture with PHA and IL-1
Method: (§2) Immunosuppressive activity was evaluated in an in vitro standard pharmacological test procedure to measure lymphocyte proliferation (LAF) and in two in vivo standard pharmacological test procedures. The first in vivo procedure was a popliteal lymph node (PLN) test procedure which measured the effect of compounds of this invention on a mixed lymphocyte reaction and the second in vivo procedure evaluated the survival time of a pinch skin graft.
Briefly, cells from the thymus of normal BALB/c mice are cultured for 72 hours with PHA and IL-1 and pulsed with tritiated thymidine during the last six hours. […] Cells are harvested and incorporated; radioactivity is determined. Inhibition of lymphoproliferation is assessed in percent change in counts per minute from non-drug treated controls. The results are expressed by the following ratio: [formula]

[4] = tested on: Candida albicans ATCC 38246; test: Antifungal plate test, inhibition of Candida albicans ATCC 38246; assay type: cell-based; details: for MIC: Candida albicans, ATCC38246, read-out: MIC to inhibit growth
Method: as §1

[5] = tested on: pinch skin graft from male DBA/2 donors; test: Survival time of pinch skin graft; assay type: in vivo, male BALB/c mice (recipients); details: intraperitoneally; mean ± S.D.
Method: as §2
The second in vivo test procedure is designed to determine the survival time of pinch skin graft from male DBA/2 donors transplanted to male BALB/c recipients. The method is adapted from Billingham R. E. and Medawar P. B., J. Exp. Biol. 28:385-402, (1951). Briefly, a pinch skin graft from the donor is grafted on the dorsum of the recipient as a homograft, and an autograft is used as control in the same region. […] Untreated recipients serve as rejection control. The graft is monitored daily and observations are recorded until the graft becomes dry and forms a blackened scab. This is considered as the rejection day. The mean graft survival time (number of days±S.D.) of the drug treatment group is compared with the control group.

[6] = tested on: Candida albicans 3669; test: Antifungal plate test, inhibition of Candida albicans 3669; assay type: cell-based; details: strain 3669; for MIC: Candida albicans, read-out: MIC to inhibit growth
Method: as §1

[7] = tested on: Candida albicans ATCC 38247; test: Antifungal plate test, inhibition of Candida albicans ATCC 38247; assay type: cell-based; details: for MIC: Candida albicans, ATCC38247, read-out: MIC to inhibit growth
Method: as §1

[8] = tested on: mixed lymphocyte reaction in popliteal lymph node; test: In vivo popliteal lymph node (PLN) test procedure; design: species or system C3H mice (BALB/c donors); details: for PLN Assay (ratio): in vivo, rapamycin 1.0, p.o. daily Day 0 to Day 4
Method: as §2
A mixed lymphocyte reaction (MLR) occurs when lymphoid cells from genetically distinct animals are combined in tissue culture. Each stimulates the other to undergo blast transformation which results in increased DNA synthesis that can be quantified by the incorporation of tritiated thymidine. Since stimulating a MLR is a function of disparity at Major Histocompatibility antigens, an in vivo popliteal lymph node (PLN) test procedure closely correlates to host vs. graft disease. Briefly, irradiated spleen cells from BALB/c donors are injected into the right hind foot pad of recipient C3H mice. The drug is given daily, p.o. from Day 0 to Day 4. On Day 3 and Day 4, tritiated thymidine is given i.p., b.i.d. On Day 5, the hind popliteal lymph nodes are removed and dissolved, and radioactivity counted. The corresponding left PLN serves as the control for the PLN from the injected hind foot. Percent suppression is calculated using the non-drug treated animals as allogenic control. […] Results are expressed by the following ratio: [formula]

[9] = tested on: transplant rejection; details: cited from earlier work
[10] = tested on: IgE-like antibodies; details: in vivo; cited from earlier work
[11] = alone or in combination with picibanil; cited from earlier work
[12] = tested on: multiple sclerosis; details: in vivo; cited from earlier work
[13] = tested on: Candida albicans; details: in vitro and in vivo; cited from earlier work

Molecule	MIC to inhibit growth [1] [µg/mL]	MIC to inhibit growth [2] [µg/mL]	LAF Assay (ratio) [3]	MIC to inhibit growth [4] [µg/mL]	Skin Graft Assay (days + SD), mean graft survival time [5] [days]	MIC to inhibit growth [6] [µg/mL]	MIC to inhibit growth [7] [µg/mL]	MIC [1] [µg/mL]	MIC [2] [µg/mL]	PLN Assay (ratio) [8]	MIC [4] [µg/mL]	MIC [6] [µg/mL]	MIC [7] [µg/mL]	inhibition of transplant rejection / immunosuppressive effect [9]	Percent suppression (PLN) ([8]; 6 mg/kg, p.o.) [%]	inhibition of formation of IgE-like antibodies [10]	antitumor activity [11]	effect in experimental allergic encephalomyelitis model [12]	antifungal activity [13]
1,2,3,4-Tetrahydrorapamycin [Example 2]	0.006	0.0125	0.036	0.05	7.0 ± 0.9	0.0125	0.006	–	–	–	–	–	–	–	–	–	–	–	–
CO[C@H]1C[C@@H]2CC[C@@H](C)[C@@](O)(O2)C(=O)C(=O)N2CCCC[C@H]2C(=O)O[C@H]([C@H](C)C[C@@H]2CC[C@@H](O)[C@H](OC)C2)CC(=O)[C@H](C)/C=C(\C)[C@@H](O)[C@@H](OC)C(=O)[C@H](C)C[C@H](C)CC/C=C/C=C/1C [Example 1, 1,2-Dihydrorapamycin]	–	–	–	–	7.3 ± 0.9	–	–	0.4 (≈ 0.437 µM)	0.2 (≈ 0.218 µM)	-1.67	0.2 (≈ 0.218 µM)	0.2 (≈ 0.218 µM)	> 0.4	–	–	–	–	–	–
C=CC[C@@H]1/C=C(\C)C[C@H](C)C[C@H](OC)[C@H]2O[C@@](O)(C(=O)C(=O)N3CCCC[C@H]3C(=O)O[C@H](/C(C)=C/[C@@H]3CC[C@@H](O)[C@H](OC)C3)[C@H](C)[C@@H](O)CC1=O)[C@H](C)C[C@@H]2OC [FK-506]	–	–	–	–	–	–	–	–	–	–	–	–	–	effective as immunosuppressive agents	–	–	–	–	–
CO[C@H]1C[C@@H]2CC[C@@H](C)[C@@](O)(O2)C(=O)C(=O)N2CCCC[C@H]2C(=O)O[C@H]([C@H](C)C[C@@H]2CC[C@@H](O)[C@H](OC)C2)CC(=O)[C@H](C)/C=C(\C)[C@@H](O)[C@@H](OC)C(=O)[C@H](C)C[C@H](C)/C=C/C=C/C=C/1C [Rapamycin, rapamycin]	–	–	–	–	12.0 ± 1.7	–	–	0.003 (≈ 0.00328 µM)	0.006 (≈ 0.00656 µM)	1.0	0.025 (≈ 0.0273 µM)	0.025 (≈ 0.0273 µM)	0.003 (≈ 0.00328 µM)	effective in inhibiting transplant rejection	86	effectively inhibited the formation of IgE-like antibodies	antitumor activity	effective in the experimental allergic encephalomyelitis model	antifungal activity, particularly against Candida albicans, both in vitro and in vivo
